We go through two compounds from the NIST ThermoML archive (doi:10.1021/je500513b).

Numbers after ± are expanded uncertainties.

A short description of the data set: mn = molality of the nth substance listed, in mol/kg. The following applies: 298.15 K, Pendant drop shape, m2 = 0.

As for `O` [water] + CCCCCCCCCCCCCC[N+](C)(C)CCCC[N+](C)(C)CCCCCCCCCCCCCC.[Br-].[Br-], the surface tension liquid-gas was determined as 71.98 ± 16 mN/m.

For the compound `O` [water] + CCCCCCCCCCCCCC[N+](C)(C)CCCCCC[N+](C)(C)CCCCCCCCCCCCCC.[Br-].[Br-], the surface tension liquid-gas is listed as 71.98 ± 16 mN/m.

What is called surface tension liquid-gas is the work needed to enlarge the surface of a liquid by unit area.
